These are literature values, as cited in patent US20040137049A1, “Amphotericin b aqueous composition” (priority 2001, published 2004).

Broadly, the Solubility is the concentration that dissolves in the medium under given conditions.

The conditions of this data set: in methanol.

The structures appear in SMILES notation. Converted amounts (≈) assume the structure as drawn.

With `C[C@@H]1[C@H](O)[C@@H](C)/C=C/C=C/C=C/C=C/C=C/C=C/C=C/[C@H](O[C@@H]2O[C@H](C)[C@@H](O)[C@H](N)[C@@H]2O)C[C@@H]2O[C@](O)(C[C@@H](O)C[C@@H](O)[C@H](O)CC[C@@H](O)C[C@@H](O)CC(=O)O[C@H]1C)C[C@H](O)[C@H]2C(=O)O` [Amphotericin B], the Solubility is 100 µg/mL (≈ 108 µM).
